Reference: US10336697B2, “Spiro[cyclobutane-1,3′-indolin]-2′-one derivatives as bromodomain inhibitors” (Orion Corporation, priority 2015, dated 2019)
pIC50: −log10 of the molar value.

Each compound was assayed against Bet BRD4 full length bromo-domain protein (Homo sapiens, UniProt O60885) (assay: Bet bromodomain TR-FRET assay (displacement of acetyl histone peptide)). Conditions: Bet BRD4 full length bromodomain protein, 300 nM acetyl histone peptide substrate, read-out: IC50.
Type: binding

Row | SMILES | pIC50
1 | COc1ccc(-c2cc(NS(=O)(=O)c3ccc(F)cc3F)cc3c2NC(=O)C32CCC2)cn1 [Compound 3, 2,4-Difluoro-N-(7′-(6-methoxypyridin-3-yl)-2′-oxospiro [cyclobutane-1,3′-indolin]-5′-yl)benzenesulfonamide] | 6.00 to 6.22
2 | COc1cc(-c2cc(NS(=O)(=O)c3ccc(F)cc3F)cc3c2NC(=O)C32CCC2)ccn1 [Compound 2, 2,4-Difluoro-N-(7′-(2-methoxypyridin-4-yl)-2′-oxospiro [cyclobutane-1,3′-indolin]-5′-yl)benzenesulfonamide] | 6.00 to 6.22
3 | O=C(Nc1cc(NS(=O)(=O)c2ccc(F)cc2F)cc2c1NC(=O)C21CCC1)c1cccnc1 [Compound 44, N-(5′-(2,4-Difluorophenylsulfonamido)-2′-oxospiro[cyclobutane-1,3′-indolin]-7′-yl)nicotinamide] | < 6.00
4 | O=C1Nc2c(NC3CN4CCC3CC4)cc(NS(=O)(=O)c3ccc(F)cc3F)cc2C12CCC2 (stereo not drawn) [Compound 19, 2,4-Difluoro-N-(2′-oxo-7′-(quinuclidin-3-ylamino)spiro[cyclobutane-1,3′-indolin]-5′-yl)benzenesulfonamide] | > 6.22
5 | COc1ccccc1S(=O)(=O)Nc1cc(OC2CCOCC2)c2c(c1)C1(CCC1)C(=O)N2 [Compound 141, 2-Methoxy-N-(2′-oxo-7′-((tetrahydro-2H-pyran-4-yl)oxy)spiro[cyclobutane-1,3′-indolin]-5′-yl)benzenesulfonamide] | > 6.22
6 | O=C(NC1CCCNC1)c1cc(NS(=O)(=O)c2ccc(F)cc2F)cc2c1NC(=O)C21CCC1 (single isomer, unassigned) [Compound 68, 5′-(2,4-Difluorophenylsulfonamido)-2′-oxo-N-(piperidin-3-yl)spiro[cyclobutane-1,3′-indoline]-7′-carboxamide] | > 6.22
7 | COc1ccccc1S(=O)(=O)Nc1cc(OC(=O)N2CCOCC2)c2c(c1)C1(CCC1)C(=O)N2 [Compound 170, 5′-((2-Methoxyphenyl)sulfonamido)-2′-oxospiro[cyclobutane-1,3′-indolin]-7′-yl morpholine-4-carboxylate] | > 6.22
8 | CC1(C)CNCCC1Nc1cc(NS(=O)(=O)c2ccc(F)cc2F)cc2c1NC(=O)C21CCC1 (stereo not drawn) [Compound 103, N-(7′-((3,3-dimethylpiperidin-4-yl)amino)-2′-oxospiro[cyclobutane-1,3′-indolin]-5′-yl)-2,4-difluorobenzenesulfonamide] | > 6.22
9 | CN1CCC(Oc2cc(N(C)S(=O)(=O)c3ccc(F)cc3F)cc3c2NC(=O)C32CCC2)CC1 [compound 180, 2,4-Difluoro-N-methyl-N-(7′-((1-methylpiperidin-4-yl)oxy)-2′-oxospiro[cyclobutane-1,3′-indolin]-5′-yl)benzenesulfonamide] | > 6.22
10 | CCN(CC)CCOc1cc(NS(=O)(=O)c2ccccc2OC)cc2c1NC(=O)C21CCC1 [Compound 165, N-(7′-(2-(diethylamino)ethoxy)-2′-oxospiro[cyclobutane-1,3′-indolin]-5′-yl)-2-methoxybenzenesulfonamide] | > 6.22
11 | CN1CCCC(Nc2cc(NS(=O)(=O)c3ccc(F)cc3F)cc3c2NC(=O)C32CCC2)C1 (single isomer, unassigned) [Compound 35, 2,4-Difluoro-N-(7′-((1-methylpiperidin-3-yl)amino)-2′-oxospiro[cyclobutane-1,3′-indolin]-5′-yl)benzenesulfonamide] | 6.00 to 6.22
12 | CN1CCOC(COc2cc(NS(=O)(=O)c3ccc(Cl)cc3F)cc3c2NC(=O)C32CCC2)C1 (stereo not drawn) [compound 194, 4-Chloro-2-fluoro-N-(7′-((4-methylmorpholin-2-yl)methoxy)-2′-oxospiro[cyclobutane-1,3′-indolin]-5′-yl)benzenesulfonamide] | > 6.22
13 | O=C(Nc1cc(NS(=O)(=O)c2ccc(F)cc2F)cc2c1NC(=O)C21CCC1)C1CCOCC1 [Compound 46, N-(5′-(2,4-Difluorophenylsulfonamido)-2′-oxospiro[cyclobutane-1,3′-indolin]-7′-yl)tetrahydro-2H-pyran-4-carboxamide] | < 6.00
14 | O=C1Nc2c(-c3ccnc(O)c3)cc(NS(=O)(=O)c3ccc(F)cc3F)cc2C12CCC2 [Compound 100, 2,4-difluoro-N-(7′-(2-hydroxypyridin-4-yl)-2′-oxospiro[cyclobutane-1,3′-indolin]-5′-yl)benzenesulfonamide] | < 6.00
15 | CN1CCC(N(C)C(=O)c2cc(NS(=O)(=O)c3ccc(F)cc3F)cc3c2NC(=O)C32CCC2)CC1 [Compound 53, 5′-(2,4-Difluorophenylsulfonamido)-N-methyl-N-(1-methylpiperidin-4-yl)-2′-oxospiro[cyclobutane-1,3′-indoline]-7′-carboxamide] | < 6.00
16 | O=C(NC1CCOCC1)c1cc(NS(=O)(=O)c2ccc(F)cc2F)cc2c1NC(=O)C21CCC1 [Compound 50, 5′-(2,4-Difluorophenylsulfonamido)-2′-oxo-N-(tetrahydro-2H-pyran-4-yl)spiro[cyclobutane-1,3′-indoline]-7′-carboxamide] | > 6.22
17 | CN1CCC(C(=O)Nc2cc(NS(=O)(=O)c3ccc(F)cc3F)cc3c2NC(=O)C32CCC2)CC1 [Compound 43, N-(5′-((2,4-difluorophenyl)sulfonamido)-2′-oxospiro[cyclobutane-1,3′-indolin]-yl)-1-methylpiperidine-4-carboxamide] | 6.00 to 6.22
18 | CCCN1CCC(Nc2cc(NS(=O)(=O)c3ccc(F)cc3F)cc3c2NC(=O)C32CCC2)CC1 [Compound 29, 2,4-Difluoro-N-(2′-oxo-7′-((1-propylpiperidin-4-yl)amino)spiro[cyclobutane-1,3′-indolin]-5′-yl)benzenesulfonamide] | > 6.22
19 | CC1(C)CN(Cc2ccccc2)CCC1Nc1cc(NS(=O)(=O)c2ccc(F)cc2F)cc2c1NC(=O)C21CCC1 (stereo not drawn) [Compound 36, N-(7′-((1-benzyl-3,3-dimethylpiperidin-4-yl)amino)-2′-oxospiro[cyclobutane-1,3′-indolin]-5′-yl)-2,4-difluorobenzenesulfonamide] | 6.00 to 6.22
20 | COc1ccccc1S(=O)(=O)Nc1cc(OC(C)CN(C)C)c2c(c1)C1(CCC1)C(=O)N2 (stereo not drawn) [Compound 166, N-(7′-((1-(dimethylamino)propan-2-yl)oxy)-2′-oxospiro[cyclobutane-1,3′-indolin]-5′-yl)-2-methoxybenzenesulfonamide] | > 6.22
21 | COc1ccc(S(=O)(=O)Nc2cc(Cc3cccc(F)c3)c3c(c2)C2(CCC2)C(=O)N3)c(F)c1 [Compound 95, 2-Fluoro-N-(7′-(3-fluorobenzyl)-2′-oxospiro[cyclobutane-1,3′-indolin]-5′-yl)-4-methoxybenzenesulfonamide] | > 6.22
22 | O=C(Nc1cc(NS(=O)(=O)c2ccc(F)cc2F)cc2c1NC(=O)C21CCC1)c1ccncc1 [Compound 45, N-(5′-(2,4-Difluorophenylsulfonamido)-2′-oxospiro[cyclobutane-1,3′-indolin]-7′-yl)isonicotinamide] | < 6.00

The next lines start with the values.

Row | pIC50 | SMILES
23 | > 6.22 | CCN1CCC(Oc2cc(NS(=O)(=O)c3ccccc3OC)cc3c2NC(=O)C32CCC2)CC1 [Compound 135, N-(7′-((1-ethylpiperidin-4-yl)oxy)-2′-oxospiro[cyclobutane-1,3′-indolin]-5′-yl)-2-methoxybenzenesulfonamide]
24 | > 6.22 | O=C1CC(c2cc(NS(=O)(=O)c3ccc(F)cc3F)cc3c2NC(=O)C32CCC2)CCN1 (stereo not drawn) [Compound 104, 2,4-Difluoro-N-(2′-oxo-7′-(2-oxopiperidin-4-yl)spiro[cyclobutane-1,3′-indolin]-5′-yl)benzenesulfonamide]
25 | > 6.22 | COc1ccccc1S(=O)(=O)Nc1cc(Cc2ccccc2F)c2c(c1)C1(CCC1)C(=O)N2 [Compound 9, N-(7′-(2-fluorobenzyl)-2′-oxospiro[cyclobutane-1,3′-indolin]-5′-yl)-2-methoxybenzenesulfonamide]
26 | > 6.22 | CN1CCC(CCc2cc(NS(=O)(=O)c3ccc(F)cc3F)cc3c2NC(=O)C32CCC2)CC1 [Compound 116, 2,4-Difluoro-N-(7′-(2-(1-methylpiperidin-4-yl)ethyl)-2′-oxospiro-[cyclobutane-1,3′-indolin]-5′-yl)benzenesulfonamide]
27 | > 6.22 | COc1ccccc1S(=O)(=O)Nc1cc(OC2CCC(O)CC2)c2c(c1)C1(CCC1)C(=O)N2 (stereo not drawn) [Compound-208, N-(7′-((4-Hydroxycyclohexyl)oxy)-2′-oxospiro[cyclobutane-1,3′-indolin]-5′-yl)-2-methoxybenzenesulfonamide]
28 | > 6.22 | CN1CCCC(NC(=O)c2cc(NS(=O)(=O)c3ccc(F)cc3F)cc3c2NC(=O)C32CCC2)C1 (stereo not drawn) [Compound 58, 5′-(2,4-Difluorophenylsulfonamido)-N-(1-methylpiperidin-3-yl)-2′-oxospiro[cyclobutane-1,3′-indoline]-7′-carboxamide]
29 | > 6.22 | O=C1Nc2c(OC3CCCNC3)cc(NS(=O)(=O)c3ccc(Cl)cc3F)cc2C12CCC2 (stereo not drawn) [compound 200, 4-Chloro-2-fluoro-N-(2′-oxo-7′-(piperidin-3-yloxy)spiro[cyclobutane-1,3′-indolin]-5′-yl)benzenesulfonamide]
30 | > 6.22 | CCN1CCCC(Nc2cc(NS(=O)(=O)c3ccc(F)cc3F)cc3c2NC(=O)C32CCC2)C1 (stereo not drawn) [Compound 70, N-(7′-((1-ethylpiperidin-3-yl)amino)-2′-oxospiro[cyclobutane-1,3′-indolin]-5′-yl)-2,4-difluorobenzenesulfonamide]
31 | > 6.22 | COc1ccccc1S(=O)(=O)Nc1cc(OCCN2CCOCC2)c2c(c1)C1(CCC1)C(=O)N2 [Compound 168, 2-Methoxy-N-(7′-(2-morpholinoethoxy)-2′-oxospiro[cyclobutane-1,3′-indolin]-5′-yl)benzenesulfonamide]
32 | > 6.22 | COc1cccc(F)c1S(=O)(=O)Nc1cc(OC2CCN(C)CC2)c2c(c1)C1(CCC1)C(=O)N2 [Compound-185, 2-Fluoro-6-methoxy-N-(7′-((1-methylpiperidin-4-yl)oxy)-2′-oxospiro[cyclobutane-1,3′-indolin]-5′-yl)benzenesulfonamide]
33 | > 6.22 | COc1ccccc1S(=O)(=O)Nc1cc(NC2=CC(=O)NCC2)c2c(c1)C1(CCC1)C(=O)N2 [Compound 77, 2-Methoxy-N-(2′-oxo-7′-((6-oxo-1,2,3,6-tetrahydropyridin-4-yl)amino)spiro[cyclobutane-1,3′-indolin]-5′-yl)benzenesulfonamide]
